These results are taken from patent US4772602A, “N-substituted 3,4-dihydropyrimidine derivatives as agents for treating disorders of cardiovascular system” (Suntory Limited, priority 1985, dated 1988).

For series [1], the system named is isolated guinea pig hearts (coronary artery). Briefly: coronary vascular dilative effect in isolated guinea pig hearts (Langendorff's method). The arrangement: species or system guinea pig (Heartley). The following applies: 37° C., 0.1 ml administered into the coronary artery. As to the method: The coronary vascular dilative effect of 3N-substituted 3,4-dihydropyrimidine derivatives was tested.
Heartley guinea pigs (weight 400-500 g) were killed by a blow on the head and their hearts were immediately isolated. The hearts were perfused with Krebs-Henseleit solution bubbled with a mixture of 95% O2 +5% CO2 and maintained at 37° C. at a constant rate of 6 ml/minute according to the Langendorff's method [J. Pharmacol. Methods 2, 143 (1979)]. The perfusion pressure was measured by a pressure transducer continuously. Samples were prepared by emulsifying 1 mg of a test compound in 1 ml of a mixture of dimethylsulfoxide and physiological saline solution (1:9) and diluting with physiological saline solution to the predetermined concentration. 0.1 ml of the diluted solution was administered into the coronary artery via a rubber tube connected to an aorta cannula to obtain ED50 (μg/heart) data as shown in Table 3. The numbers of the compounds in the Table correspond respectively to those of the working examples described above.

In another series the test system is vertebral artery. As to the kind of experiment: vascular resistance of the vertebral artery in anesthetized dogs (ED30). In kind it is in vivo, dog. The conditions noted are these: Canis lupus familiaris, intravenous injection. The method, then:
The pharmacological effect (ED30) of the compounds of the present invention with respect to the vascular resistance of the vertebral artery in anesthetized dogs was treated by the following procedure.
Adult dogs of either sex (7-14 kg in body weight) were anesthetized with at first thiopental sodium (35 mg/kg, intraperitoneal), anesthetized with urethane (400 mg/kg, intravenous) and chloralose (60 mg/kg, intravenous) and kept under artificial respiration throughout the experiment. After thoracotomy at the left first intercostal space, the vertebral artery was exposed and blood flow was measured with intracorporeal flow probe connected to an electromagnetic flowmeter (MF-27, Nihon Kohden).
At the same time, continuous measurement of the following parameters was made: systemic blood pressure (mean pressure) at the right femoral artery, the limb lead II ECG, the heart rate with a tachometer triggered by the R wave of ECG, and the vascular resistance determined by loading a electronic divider unit (EO-601 G, Nihon Kohden) with the mean values of blood pressure and vertebral artery blood flow. All of these parameters were recorded simultaneously on a polygraph (RM-600, Nihon Kohden).
All the test compounds were injected through a cannula inserted into the femoral vein.
The ED30 (μg/kg) values obtained by intravenous injection are listed in Table 4, wherein the Compound Numbers are keyed to the Example Numbers.

The test system of series [2] is conscious spontaneously hypertensive rats (SHR). Briefly: hypotensive action in conscious spontaneously hypertensive rats (SHR). In kind it is in vivo, rat (SHR). The following applies: 10 mg/kg orally. As to the method: A selected compound of the present invention was tested for its hypotensive action in conscious spontaneously hypertensive rats (SHR).
A group of 17 to 20-week old male SHR were anesthetized with ether and a cannula was inserted into the left femoral artery. At least one day after the operation, the cannula was connected to a pressure transducer and the blood pressure was measured continuously under conscious and unrestrained condition, thereby obtaining the data shown in Table 6. The test compound as clear solution dissolved in 10% ethanol was administered orally at a dose of 10 mg/kg (body weight) to each animal fasted overnight.

Series [3] in a line: acute toxicity (LD50), Litchfield-Wilcoxon method. More on the design: species or system mouse (male ddY). The following applies: mouse, in vivo, emulsion in 10% dimethyl sulfoxide. The method, then:
The acute toxicity (LD50) data of compound No. 28 of the present invention as administered to two groups of 5 or 6-week old male ddY mice were obtained by the Litchfield-Wilcoxon method. One group of mice was fasted overnight prior to oral administration. To each group of mice, the test compound was administered in the form of emulsion in 10% dimethyl sulfoxide.

Where two headings read alike, the source gives them in different places.

`CC1=NC(C)=C(C(=O)OC(C)C)C(c2ccccc2[N+](=O)[O-])N1C(=O)OCCN(C)Cc1ccccc1` (stereo not drawn) [Compound 10]: in series [1], the “ED50 (coronary vascular dilative effect)” value was found to be 0.060 μg/heart. This molecule registered an ED30 in the series with vertebral artery of 0.00054 mg/kg.

Regarding `CC1=NC(C)=C(C(=O)OCC2CC2)C(c2ccccc2[N+](=O)[O-])N1C(=O)OCCN(C)Cc1ccccc1Cl` (stereo not drawn) [Compound 6], the “ED50 (coronary vascular dilative effect)” value in series [1] is 0.0092 μg/heart. The same molecule registered an ED30 with vertebral artery of 0.0014 mg/kg.

In the case of `CCOC(=O)C1=C(C)N=C(C)N(C(=O)OCCN(C)Cc2ccccc2)C1c1ccccc1[N+](=O)[O-]` (stereo not drawn) [Compound 3], the “ED50 (coronary vascular dilative effect)” value in series [1] worked out at 0.0095 μg/heart. Further, in the series on vertebral artery, the ED30 was 0.00075 mg/kg.

`CC1=NC(C)=C(C(=O)OCC2CC2)C(c2ccccc2[N+](=O)[O-])N1C(=O)OCCN1CCc2ccccc2C1` (stereo not drawn) [Compound 21]: in series [1], the “ED50 (coronary vascular dilative effect)” value came to 0.45 μg/heart. This molecule also showed an ED30 with vertebral artery of 0.002 mg/kg.

Take `COc1ccc(CN(C)CCOC(=O)N2C(C)=NC(C)=C(C(=O)OCC3CC3)C2c2ccccc2[N+](=O)[O-])cc1` (stereo not drawn) [Compound 5]: the “ED50 (coronary vascular dilative effect)” value in series [1] is 0.036 μg/heart. Also, in the series with vertebral artery, the ED30 was 0.0024 mg/kg.

What is called LD50 is the dose expected to kill half of the subjects tested. In the series with vertebral artery, `CC1=NC(C)=C(C(=O)OCC2CC2)C(c2ccccc2[N+](=O)[O-])N1C(=O)OCCN(CCCc1ccccc1)Cc1ccccc1` (stereo not drawn) [Compound 28, 3-[2-{N-benzyl-N-(3-phenylpropyl)amino}ethoxycarbonyl]-5-cyclopropylmethoxycarbonyl-2,6-dimethyl-4-(2-nitrophenyl)-3,4-dihydropyrimidine] came in with an ED30 of 0.0042 mg/kg. The “time of maximum blood pressure decrease” value in series [2] worked out at 2 h. In series [2] (6 hours), the “Blood pressure decrease, 6 hours” value was 10-20%. The “Blood pressure decrease, maximum decrease” value in series [2] (in 2 hrs) amounted to 35%. Besides, the LD50 was greater than 1000 mg/kg in series [3] (male ddY mice fasted overnight, oral, read-out: LD50 oral) and 180 to 200 mg/kg in series [3] (male ddY mice, intravenous, read-out: LD50 intravenous).

For the molecule `CC1=NC(C)=C(C(=O)OCC2CC2)C(c2cccc([N+](=O)[O-])c2)N1C(=O)OCCN(C)Cc1ccccc1` (stereo not drawn) [Compound 2], the “ED50 (coronary vascular dilative effect)” value in series [1] amounted to 0.52 μg/heart. The molecule also displayed an ED30 with vertebral artery of 0.00084 mg/kg.

Consider `CC1=NC(C)=C(C(=O)OCC2CC2)C(c2ccccc2[N+](=O)[O-])N1C(=O)OCCN(C)Cc1ccc(F)cc1` (stereo not drawn) [Compound 11], for which the “ED50 (coronary vascular dilative effect)” value in series [1] is listed as 0.030 μg/heart. The molecule further yielded an ED30 in the series with vertebral artery of 0.00055 mg/kg.

Consider `CC1=NC(C)=C(C(=O)OCC2CC2)C(c2ccccc2[N+](=O)[O-])N1C(=O)OCCCCCN(C)Cc1ccccc1` (stereo not drawn) [Compound 9], for which the “ED50 (coronary vascular dilative effect)” value in series [1] is recorded as 0.10 μg/heart. In the series on vertebral artery, this molecule came in with an ED30 of 0.0039 mg/kg.

Turning to `CC1=NC(C)=C(C(=O)OCC2CC2)C(c2ccccc2[N+](=O)[O-])N1C(=O)OCCN(C)Cc1ccccc1` (stereo not drawn) [Compound 1, 3-{2-(N-benzyl-N-methylamino)ethoxycarbonyl}-5-cyclopropylmethoxycarbonyl-2,6-dimethyl-4-(2-nitrophenyl)-3,4-dihydropyrimidine], the “ED50 (coronary vascular dilative effect)” value in series [1] turned out to be 0.013 μg/heart. This molecule gave an ED30 in the series with vertebral artery of 0.00058 mg/kg.
